Article PMC6324813, “Biological evaluation of isoflavonoids from Genista halacsyi using estrogen-target cells: Activities of glucosides compared to aglycones” (PLoS ONE, 2019)
Read-outs that look alike come from different tables or passages of the source.

Legend:
Ishikawa cells = assay: Induction of AlkP expression in Ishikawa cells; type: cell-based, human; conditions: for Induction of Alkaline Phosphatase Expression (Ishikawa cells) AUC (%): % of AUC of luciferase response of archetypal 3, 4, 5 or 8 up to 0.3, 10, 1.0 and 3.0 μM; for Ratio of AUC (AlkP / Lucif): AUCAlkP / AUCluciferase; for EC (25% of 0.1 nM E2 effect) / activation at 1 µM / EC50: Homo sapiens, Ishikawa; for EC (25% of 0.1 nM E2 effect): concentration required to achieve 25% of the effect of 0.1 nM E2, read-out: Induction of Alkaline Phosphatase Expression (Ishikawa cells) EC25E2; for activation at 1 µM: read-out: Induction of AlkP expression (Ishikawa cells) Agonism at 1μΜ (% of 0.1nM E2); for EC50: concentration required to achieve 50% of the effect of 0.1 nM E2, read-out: Induction of Alkaline Phosphatase Expression (Ishikawa cells) EC50E2
Description: Induction of AlkP expression of Ishikawa cells is considered as a reliable in vitro measure of estrogenic activity. Assessment of AlkP expression in Ishikawa cells was carried as already described. Briefly, the cells were plated in 96-well plates at a density of 12,000 cells per well in phenol-red-free MEM supplemented with 1 μg/mL insulin and 5% DCC-FBS. […] Data on the dependence of AlkP activity on isoflavonoid concentration were curve fitted using SigmaPlot10 (SPSS Inc) and the numerical data of curve fitting were used to determine AUC as described above, using for the calculation of AUC of a particular AlkP response the very same concentration used for the respective luciferase response. The AUC of AlkP responses of the isoflavonoids of a group were expressed as % of the AUC of the luciferase response of the respective archetypal isoflavone.

MDA-MB-231 cells = assay: MDA-MB-231 cell proliferation (MTT); type: cell-based; conditions: 0.1 nM estradiol, 1 μM ICI182,780, isoflavonoids 1 μM
Description: Test compound effects on the proliferation of MCF-7 and MDA-MB-231 cells were assessed as previously described. […] Relative numbers of cells exposed to estradiol or to ICI182,780 acted as positive and negative control, respectively.

MCF-7 cells = assay: MCF-7 cell proliferation (MTT); type: cell-based, human; conditions: for activation at 1 µM: Homo sapiens, MCF7, 72 h, read-out: Induction of cell proliferation (MCF-7 cells) Agonism at 1μΜ (% of 0.1nM E2); for Induction of cell proliferation (MCF-7 cells) Agonism at 1μΜ, class: compounds 1 μM, 72 h
Description: Test compound effects on the proliferation of MCF-7 and MDA-MB-231 cells were assessed as previously described.

TNFα mRNA = conditions: 1–10 μM, ER-independent; cited from earlier work
ERβ [1] = molecular target: T1, ERβ (Homo sapiens, UniProt Q92731); parameters: purchased Invitrogen; conditions: cited from earlier work
T1 sequence (Q92731 whole entry): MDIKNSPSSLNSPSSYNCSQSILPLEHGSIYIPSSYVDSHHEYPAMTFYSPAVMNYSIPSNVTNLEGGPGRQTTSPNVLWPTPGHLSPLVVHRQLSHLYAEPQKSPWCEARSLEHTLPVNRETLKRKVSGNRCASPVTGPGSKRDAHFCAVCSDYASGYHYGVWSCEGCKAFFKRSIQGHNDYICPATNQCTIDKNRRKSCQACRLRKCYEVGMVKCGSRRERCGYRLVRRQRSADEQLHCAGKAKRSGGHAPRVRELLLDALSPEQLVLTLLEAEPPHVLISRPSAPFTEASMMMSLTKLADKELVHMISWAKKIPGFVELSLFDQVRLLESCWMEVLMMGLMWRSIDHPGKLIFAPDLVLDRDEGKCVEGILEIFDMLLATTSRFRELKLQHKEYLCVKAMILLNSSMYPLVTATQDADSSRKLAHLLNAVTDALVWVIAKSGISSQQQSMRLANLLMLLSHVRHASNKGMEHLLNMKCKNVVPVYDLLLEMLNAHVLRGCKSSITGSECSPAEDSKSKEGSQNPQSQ

ERβ [2] = molecular target: T1, ERβ; assay: ERE-dependent luciferase gene transcription in HEK:ERβ cells; type: cell-based; parameters: expressed in transfected cells; host or cells: HEK-293 (HEK:ERβ clone, with pERE-tk-Luciferase)
Description: (§1) Assessment of ER/ERE-dependent luciferase gene transcription in MCF-7:D5L (express ERα) and HEK:ERβ cells (express ERβ) and determination of ER transcriptional agonism was carried as already described. Briefly, the cells were plated in 96-well plates at a density of 12,000 cells per well in phenol-red-free MEM (MCF-7:D5L cells) or phenol-red-free DMEM (HEK:ERβ cells) supplemented with 1 μg/mL insulin and 5% DCC-FBS. […] The AUC of the isoflavonoids of each group were then expressed as % of the AUC of the respective archetypal isoflavone. Since AUC data combine the efficacy as well as the potency of cell response into a single parameter, the %AUC data were considered here as a more reliable measure of relative ER/ERE-dependent luciferase expression of the test compounds.

ERβ [3] = molecular target: T1, ERβ; assay: ER binding competitor assay (fluorescent estrogen ES2), ERβ; parameters: purchased Invitrogen; conditions: for RBAβ / RBAα: ERβ-binding selectivity; for RBAβ: RBA = (IC50 estradiol/IC50 compound) × 100, ES2 1 nM, estradiol set equal to 100
ERα [4] = molecular target: T2, ERα (Homo sapiens, UniProt P03372); parameters: purchased Invitrogen; conditions: cited from earlier work
T2 sequence (P03372 1-595): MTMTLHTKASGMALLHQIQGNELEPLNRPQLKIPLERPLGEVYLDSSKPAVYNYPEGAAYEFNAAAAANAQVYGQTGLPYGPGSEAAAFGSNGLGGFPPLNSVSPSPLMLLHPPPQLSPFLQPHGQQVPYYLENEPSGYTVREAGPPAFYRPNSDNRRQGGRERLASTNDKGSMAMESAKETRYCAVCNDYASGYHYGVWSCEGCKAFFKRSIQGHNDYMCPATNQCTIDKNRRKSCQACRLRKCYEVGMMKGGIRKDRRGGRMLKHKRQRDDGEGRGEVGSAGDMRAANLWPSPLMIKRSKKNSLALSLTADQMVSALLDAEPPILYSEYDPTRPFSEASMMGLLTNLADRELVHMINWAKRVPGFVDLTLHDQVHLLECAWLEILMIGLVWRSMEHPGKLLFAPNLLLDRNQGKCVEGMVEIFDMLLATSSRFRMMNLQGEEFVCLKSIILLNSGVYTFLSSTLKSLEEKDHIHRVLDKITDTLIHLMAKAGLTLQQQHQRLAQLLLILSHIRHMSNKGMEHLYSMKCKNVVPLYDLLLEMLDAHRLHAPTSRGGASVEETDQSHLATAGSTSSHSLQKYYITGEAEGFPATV

ERα [5] = molecular target: T2, ERα; assay: ERE-dependent luciferase gene transcription in MCF-7:D5L cells; type: cell-based; parameters: MCF-7:D5L cells, a clone of MCF-7 cells stably transfected with an Estrogen Response Element (ERE)-endowed reporter plasmid; endogenous in cells; host or cells: MCF-7:D5L (MCF-7 clone carrying pERE-Gl-Luciferase); conditions: for Induction of ERE-dependent Luciferase Transcription (MCF-7:D5L cells) AUC (%): % of AUC of luciferase response of archetypal 3, 4, 5 or 8 up to 0.3, 10, 1.0 and 3.0 μM; for Induction of luciferase gene transcription through ERα, MCF-7:D5L cells, Agonism at 1μΜ (% of 0.1nM E2) / Induction of luciferase gene transcription, MCF-7:D5L cells, Agonism at 1μΜ, class: compounds 1 μM, 18 h; for Induction of luciferase gene transcription through ERα, MCF-7:D5L cells, Agonism at 1μΜ (% of 0.1nM E2): estradiol 0.1 nM; for Induction of ERE-dependent Luciferase Transcription (MCF-7:D5L cells) EC25E2: concentration required to achieve 25% of the effect of 0.1 nM E2; for EC50: concentration required to achieve 50% of the effect of 0.1 nM E2, read-out: Induction of ERE-dependent Luciferase Transcription (MCF-7:D5L cells) EC50E2
Description: as §1

ERα [6] = molecular target: T2, ERα; assay: ER binding competitor assay (fluorescent estrogen ES2), ERα; parameters: purchased Invitrogen; conditions: RBA = (IC50 estradiol/IC50 compound) × 100; ES2 1 nM; estradiol set equal to 100
[7] = 1 μM ICI182,780, isoflavonoids 1 μM
[8] = isoflavonoids 1 μM, statistically significant effects

EC50 (Ishikawa cells) | Induction of ERE-dependent Luciferase Transcription (MCF-7:D5L cells) AUC (%) (ERα [5]) | Induction of luciferase gene transcription through ERα, MCF-7:D5L cells, Agonism at 1μΜ (% of 0.1nM E2) (ERα [5]) | Induction of ERE-dependent Luciferase Transcription (MCF-7:D5L cells) EC25E2 (ERα [5]) | EC50 (ERα [5]) | Induction of luciferase gene transcription, HEK:ERβ cells, Agonism at 1μΜ, class (ERβ [2]; compounds 1 μM, 18 h) | RBAβ / RBAα (ERβ [3]) | RBAβ (ERβ [3]) | RBAα (ERα [6]) | Induction of luciferase gene transcription, MCF-7:D5L cells, Agonism at 1μΜ, class (ERα [5]) | SMILES | Induction of Alkaline Phosphatase Expression (Ishikawa cells) AUC (%) (Ishikawa cells) | Ratio of AUC (AlkP / Lucif) (Ishikawa cells) | EC (25% of 0.1 nM E2 effect) (Ishikawa cells; 72 h) | activation at 1 µM (Ishikawa cells; 72 h) | mean value (and the range) of previously reported RBAβ (ERβ [1]) | mean value (and the range) of previously reported RBAα (ERα [4]) | activation at 1 µM (MCF-7 cells) | Induction of cell proliferation (MCF-7 cells) Agonism at 1μΜ, class (MCF-7 cells) | further results
1300 ± 150 nM | 100±13% | 50 ± 12 (Partial) ^* % of 0.1nM E2 | 0.38 ± 0.07 µM | – | – | – | – | – | – | O=c1c(-c2ccc(O)cc2)coc2cc(O)ccc12 [Compound 5, daidzein] | 104±19% | – | 0.46 ± 0.05 µM | 54 ± 4% | 0.65 (0.04–2.11) | 0.20 (0.01–0.55) | 59 ± 7% | – | RBAβ (ERβ [1]; estradiol = 100, ref 27 (Halabalaki et al.)): 0.36 ± 0.09; Induction of luciferase gene transcription through ERβ, HEK:ERβ cells, Agonism at 1μΜ (% of 0.1nM E2) (ERβ [2]; compounds 1 μM, estradiol 0.1 nM, 18 h): 84 ± 8 (Full) % of 0.1nM E2; ERα-dependent gene transcription agonist effect compared to the effect of 0.1 nM estradiol (ERα [5]; [8]): lower than
2340 ± 650 nM | 77±17% | – | 2.20 ± 0.18 µM | 3.42 ± 0.91 µM | Marginal (⩽10%) | 1.00 | 0.12 ± 0.04 | 0.12 ± 0.05 | Marginal (⩽10%) | COc1cc(-c2coc3c(C4OC(CO)C(O)C(O)C4O)c(O)cc(O)c3c2=O)ccc1O (stereo not drawn) [Compound 13, 8-C-glucopyranosyl-3΄-O-methylorobol] | 61±11% | 0.79±0.13 | 1.01 ± 0.27 µM | 15 ± 4% | – | – | – | Marginal (⩽10%) | AlkP response lower than ERα-transcriptional response (relative AUC ratios) (Ishikawa cells): ~ 30%
> 30000 nM | 0.7±0.1 % | – | >30 µM | > 30 µM | Marginal (⩽10%) | 2.50 | 0.15 ± 0.04 | 0.06 ± 0.02 | Marginal (⩽10%) | COc1ccc(-c2coc3c(OC)c(O)ccc3c2=O)cc1 [Compound 2, 8-methoxyformononetin] | 0.5±0.2 % | 0.71±0.15 | > 30 µM | – | – | – | – | Marginal (⩽10%) | Induction of AlkP expression (Ishikawa cells) Agonism at 1μΜ, class (Ishikawa cells; compounds 1 μM, 72 h): Marginal (⩽10%)

Continued, compound first:

SMILES | EC50 (Ishikawa cells) | Induction of ERE-dependent Luciferase Transcription (MCF-7:D5L cells) AUC (%) (ERα [5]) | Induction of luciferase gene transcription through ERα, MCF-7:D5L cells, Agonism at 1μΜ (% of 0.1nM E2) (ERα [5]) | Induction of ERE-dependent Luciferase Transcription (MCF-7:D5L cells) EC25E2 (ERα [5]) | EC50 (ERα [5]) | Induction of luciferase gene transcription, HEK:ERβ cells, Agonism at 1μΜ, class (ERβ [2]; compounds 1 μM, 18 h) | RBAβ / RBAα (ERβ [3]) | RBAβ (ERβ [3]) | RBAα (ERα [6]) | Induction of luciferase gene transcription, MCF-7:D5L cells, Agonism at 1μΜ, class (ERα [5]) | Induction of Alkaline Phosphatase Expression (Ishikawa cells) AUC (%) (Ishikawa cells) | Ratio of AUC (AlkP / Lucif) (Ishikawa cells) | EC (25% of 0.1 nM E2 effect) (Ishikawa cells; 72 h) | activation at 1 µM (Ishikawa cells; 72 h) | mean value (and the range) of previously reported RBAβ (ERβ [1]) | mean value (and the range) of previously reported RBAα (ERα [4]) | activation at 1 µM (MCF-7 cells) | Induction of cell proliferation (MCF-7 cells) Agonism at 1μΜ, class (MCF-7 cells) | further results
C[C@]12CC[C@@H]3c4ccc(O)cc4C[C@@H](CCCCCCCCC[S+]([O-])CCCC(F)(F)C(F)(F)F)[C@H]3[C@@H]1CC[C@@H]2O (stereo partly drawn) [ICI182,780, reference compound] | – | – | – | – | – | – | – | – | – | – | – | – | – | – | – | – | – | – | suppression of isoflavonoid-induced AlkP expression (Ishikawa cells; [7]): fully suppressed; proliferation of MDA-MB-231 cells (MDA-MB-231 cells): not affected; suppression of isoflavonoid cell proliferation effects (MCF-7 cells; [7]): fully suppressed
Oc1ccc(C2COc3cc(O)ccc3C2)cc1 (stereo not drawn) [equol, 4',7-isoflavandiol] | – | – | – | – | – | – | – | – | – | – | – | – | – | – | – | – | – | – | suppression of LPS-induced TNFα mRNA expression and cytokine release (TNFα mRNA): dose-dependent suppression
COc1ccc(-c2coc3cc(O)cc(O)c3c2=O)cc1 [Compound 1, Biochanin A] | 420 ± 30 nM | 33±8 % | 83 ± 16 (Full) % of 0.1nM E2 | 0.16 ± 0.09 µM | 0.3 ± 0.03 µM | – | – | – | – | – | 26±2 % | 0.79±0.04 | 0.19 ± 0.01 µM | 53 ± 9% | 0.69 (0.18–1.20) | 0.18 (0.02–0.34) | 70 ± 10% | – | AlkP-inducing agonist effect compared to the effect of 0.1 nM estradiol (Ishikawa cells; [8]): lower than; RBAβ / RBAα (ERβ [1]; ERβ-binding selectivity, ref 51 (Fokialakis et al.)): 3.83; activation at 1 µM (ERβ [2]; 18 h, read-out: Induction of luciferase gene transcription through ERβ, HEK:ERβ cells, Agonism at 1μΜ (% of 0.1nM E2)): 31 ± 15%; ERβ-dependent gene transcription agonist effect compared to the effect of 0.1 nM estradiol (ERβ [2]; [8]): lower than; selectivity for ERβ (class of RBAβ/RBAα) (ERβ [3]): moderate (3–10)
